From article PMC4686814 (Nature communications, 2015)

Assays:
MsVps4ΔMIT [1] = target: T1, MsVps4ΔMIT (Metallosphaera sedula, UniProt A4YHC5); assay: ITC; format: binding
T1 construct: gene Msed_1672

MsVps4ΔMIT [2] = target: T1, MsVps4ΔMIT; assay: ITC, two-site model; format: binding
[3] = target: the molecule itself; assay: SEC; Superose 6; hVPS4B E235Q and mutants of it at 100 µM with 1 mM ATP and 5 mM MgCl2

T1 sequence (A4YHC5 entry or part of it, stated change not applied): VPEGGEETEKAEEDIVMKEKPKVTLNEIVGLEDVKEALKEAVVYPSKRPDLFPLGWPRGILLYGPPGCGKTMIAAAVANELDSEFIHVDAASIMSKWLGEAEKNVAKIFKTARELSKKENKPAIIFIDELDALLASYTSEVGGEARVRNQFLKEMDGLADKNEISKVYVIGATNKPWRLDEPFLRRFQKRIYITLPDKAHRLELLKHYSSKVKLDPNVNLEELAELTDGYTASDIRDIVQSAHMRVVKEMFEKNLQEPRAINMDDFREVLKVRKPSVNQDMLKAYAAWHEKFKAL

Work on `Nc1ncnc2c1ncn2[C@@H]1O[C@H](COP(=O)(O)OP(=O)(O)OP(=O)(O)O)[C@@H](O)[C@H]1O` [ATP] yielded a Kd (MsVps4ΔMIT [1]) of 3300 nM.

For `Nc1ncnc2c1ncn2[C@@H]1O[C@H](COP(=O)(O)OP(=O)(O)O)[C@@H](O)[C@H]1O` [ADP], the Kd (MsVps4ΔMIT [2]) was 400 nM.

B1: hVPS4B E235Q Ile124Glu (enzyme, human, UniProt O75351 1-444, looked up)
chain: MSSTSPNLQKAIDLASKAAQEDKAGNYEEALQLYQHAVQYFLHVVKYEAQGDKAKQSIRAKCTEYLDRAEKLKEYLKNKEKKAQKPVKEGQPSPADEKGNDSDGEGESDDPEKKKLQNQLQGAEVIERPNVKWSDVAGLEGAKEALKEAVILPIKFPHLFTGKRTPWRGILLFGPPGTGKSYLAKAVATEANNSTFFSISSSDLVSKWLGESEKLVKNLFQLARENKPSIIFIDQIDSLCGSRSENESEAARRIKTEFLVQMQGVGVDNDGILVLGATNIPWVLDSAIRRRFEKRIYIPLPEPHARAAMFKLHLGTTQNSLTEADFRELGRKTDGYSGADISIIVRDALMQPVRKVQSATHFKKVRGPSRADPNHLVDDLLTPCSPGDPGAIEMTWMDVPGDKLLEPVVSMSDMLRSLSNTKPTVNEHDLLKLKKFTEDFGQEG
With B1 the “stoichiometry N” value [3] was 6.
